Data from patent US20220267352A1, “RAPAMYCIN ANALOGS AND USES THEREOF” (Anakuria Therapeutics, Inc., priority 2021, published 2022).

Key:
[1] = system: p-p70 S6 Kinase (Thr389) in MCF-7 cells; assay: AlphaLISA Ultra pS6K1 assay; format: cell-based; settings: Homo sapiens, 1.5 h; MCF7 cells, 90 min
Method in brief: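 Phospho-S6K1 (Thr389) quantified by AlphaLISA Ultra read-out (2 h acceptor, then 2 h donor beads) in lysates of MCF-7 cells. Cells were plated 20–24 h before, refed 2 h, exposed to compounds for 90 min at 0.5% final DMSO, and lysates stored at −80 °C.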

[2] = system: pS6K1 T389 and pAkt S473 in PC3 cells; assay: Western blot based pS6K1 and pAKT assay at 24 and 48 hour timepoints; format: cell-based
Experimental: Example 57: Western Blot Based pS6K1 and pAKT Assay at 24 and 48 Hour Timepoints
Assay Protocol: • 1. Seed six well plate with 500,000 PC3 cells per well and incubate for 20˜24 hour. • 2. Add compounds into the cell plate. Incubate for 24 to 48 hours. • 4. Plate is placed on ice and the media is removed via aspiration. The wells are washed with 1 mL of 1x PBS and then fully aspirated. • 5. 110 μL of 1% Triton Lysis Buffer is added and each well is scraped vigorously. • 6. Cell homogenates are transferred to 1.5 mL eppendorf tubes on ice and spun down at 4° C. for 10 minutes at 10,000 rpm. • 7. Protein concentration of resulting cell lysates were quantified utilizing a Bradford assay and the samples run analyzed via Western blot on 4-12% Bis/Tris gels with 1×MES buffer. • 8. The gels were transferred onto membranes at 50V for 100 minutes, blocked with Odyssey Blocking buffer for 30 minutes then incubated overnight with primary antibody (pS6K1 T389 Rabbit or pAkt S473 Rabbit) overnight at 4° C. on a rotator. • 9. The membranes were washed 3× with TBS-T with a 5 minute incubation between each wash then incubated with secondary antibody (LiCor IRDye 800 Donkey Anti Rabbit) for at least 30 minutes. • 10. The membranes were washed 3× with TBS-T with a 5 minute incubation between each wash. • 11. The gels were then incubated for 5 minutes with PBS at room temperature then imaged using a Li-Cor.
Compounds that are not selective by comparing pS6K1 and pAKT IC50 by kinase assays are indicated by “NO” in the “mTORC1 selective @ 90 min” column of Table 4. […] Compounds that are not selective at the 24 hrs mark are indicated by “NO” in the “mTORC1 selective @ 24 hrs” column of Table 4. “N/A” stands for “not assayed” and “N/C” stands for “not calculated”.

| SMILES | IC50 [1] [nM] | mTORC1 selective @ 24 hrs [2] |
| --- | --- | --- |
| COCCOCCO[C@H]1C[C@@H]2CC[C@@H](C)[C@@](O)(O2)C(=O)C(=O)N2CCCC[C@H]2C(=O)O[C@H]([C@H](C)C[C@@H]2CC[C@@H](OCCOC)[C@H](OC)C2)CC(=O)[C@H](C)/C=C(\C)[C@@H](OC)[C@@H](OC)C(=O)[C@H](C)C[C@H](C)/C=C/C=C/C=C/1C [I-47, (24E,26E,28E,29E,37R,38S,39R,40R,42S,44S,46S,47S,48R,49R,58R)-58-hydroxy-48,49-dimethoxy-46-[2-(2-methoxyethoxy)ethoxy]-47-[(1R)-2-[(1S,3R,4R)-3-methoxy-4-(2-methoxyethoxy)cyclohexyl]-1-methyl-ethyl]-37,38,39,40,50,51-hexamethyl-66,67-dioxa-59-azatricyclohexatriaconta-24,26,28(50),29(51)-tetraene-52,53,54,55,56-pentone] | 1 to 10 | Yes |
| COCCOCCO[C@H]1C[C@@H]2CC[C@@H](C)[C@@](O)(O2)C(=O)C(=O)N2CCCC[C@H]2C(=O)O[C@H]([C@H](C)C[C@@H]2CC[C@@H](OC)[C@H](OC)C2)CC(=O)[C@H](C)/C=C(\C)[C@@H](OC)[C@@H](OC)C(=O)[C@H](C)C[C@H](C)/C=C/C=C/C=C/1C [I-31, (24E,26E,28E,29E,35R,36S,37R,38R,40S,42S,44S,45S,46R,47R,56R)-45-[(1R)-2-[(1S,3R,4R)-3,4-dimethoxycyclohexyl]-1-methyl-ethyl]-56-hydroxy-46,47-dimethoxy-44-[2-(2-methoxyethoxy)ethoxy]-35,36,37,38,48,49-hexamethyl-64,65-dioxa-57-azatricyclohexatriaconta-24,26,28(48),29(49)-tetraene-50,51,52,53,54-pentone] | 10 to 100 | Yes |
| COCCOCCO[C@H]1C[C@@H]2CC[C@@H](C)[C@@](O)(O2)C(=O)C(=O)N2CCCC[C@H]2C(=O)O[C@H]([C@H](C)C[C@@H]2CC[C@@H](OP(C)(C)=O)[C@H](OC)C2)CC(=O)[C@H](C)/C=C(\C)[C@@H](OC)[C@@H](OC)C(=O)[C@H](C)C[C@H](C)/C=C/C=C/C=C/1C [I-34, (25E,27E,29E,30E,36R,37S,38R,39R,41S,43S,45S,46S,47R,48R,57R)-46-[(1R)-2-[(1S,3R,4R)-4-dimethylphosphoryloxy-3-methoxy-cyclohexyl]-1-methyl-ethyl]-57-hydroxy-47,48-dimethoxy-45-[2-(2-methoxyethoxy)ethoxy]-36,37,38,39,49,50-hexamethyl-66,67-dioxa-58-azatricyclohexatriaconta-25,27,29(49),30(50)-tetraene-51,52,53,54,55-pentone] | 1 to 10 | Yes |
| COCCO[C@@H]1CC[C@@H](C[C@@H](C)[C@@H]2CC(=O)[C@H](C)/C=C(\C)[C@@H](OC)[C@@H](OC)C(=O)[C@H](C)C[C@H](C)/C=C/C=C/C=C(\C)[C@@H](OCCOCCOC3COC3)C[C@@H]3CC[C@@H](C)[C@@](O)(O3)C(=O)C(=O)N3CCCC[C@H]3C(=O)O2)C[C@H]1OC [I-69, (1R,9S,12S,15R,16E,18R,19R,21R,23S,24E,26E,28E,30S,32S,35R)-1-hydroxy-18,19-dimethoxy-12-[(1R)-2-[(1S,3R,4R)-3-methoxy-4-(2-methoxyethoxy)cyclohexyl]-1-methyl-ethyl]-15,17,21,23,29,35-hexamethyl-30-[2-[2-(oxetan-3-yloxy)ethoxy]ethoxy]-11,36-dioxa-4-azatricyclo[30.3.1.0^4,9]hexatriaconta-16,24,26,28-tetraene-2,3,10,14,20-pentone] | ≥ 1000 | No |
| COCCO[C@@H]1CC[C@@H](C[C@@H](C)[C@@H]2CC(=O)[C@H](C)/C=C(\C)[C@@H](O)[C@@H](OC)C(=O)[C@H](C)C[C@H](C)/C=C/C=C/C=C(\C)[C@@H](OC[C@@H]3COCCO3)C[C@@H]3CC[C@@H](C)[C@@](O)(O3)C(=O)C(=O)N3CCCC[C@H]3C(=O)O2)C[C@H]1OC [I-66, (1R,9S,12S,15R,16E,18R,19R,21R,23S,24E,26E,28E,30S,32S,35R)-30-[[(2S)-1,4-dioxan-2-yl]methoxy]-1,18-dihydroxy-19-methoxy-12-[(1R)-2-[(1S,3R,4R)-3-methoxy-4-(2-methoxyethoxy)cyclohexyl]-1-methyl-ethyl]-15,17,21,23,29,35-hexamethyl-11,36-dioxa-4-azatricyclo[30.3.1.0^4,9]hexatriaconta-16,24,26,28-tetraene-2,3,10,14,20-pentone] | 1 to 10 | Yes |
| COCCO[C@@H]1CC[C@@H](C[C@@H](C)[C@@H]2CC(=O)[C@H](C)/C=C(\C)[C@@H](O)[C@@H](OC)C(=O)[C@H](C)C[C@H](C)/C=C/C=C/C=C(\C)[C@@H](OC[C@H]3COCCO3)C[C@@H]3CC[C@@H](C)[C@@](O)(O3)C(=O)C(=O)N3CCCC[C@H]3C(=O)O2)C[C@H]1OC [I-64, (1R,9S,12S,15R,16E,18R,19R,21R,23S,24E,26E,28E,30S,32S,35R)-30-[[(2R)-1,4-dioxan-2-yl]methoxy]-1,18-dihydroxy-19-methoxy-12-[(1R)-2-[(1S,3R,4R)-3-methoxy-4-(2-methoxyethoxy)cyclohexyl]-1-methyl-ethyl]-15,17,21,23,29,35-hexamethyl-11,36-dioxa-4-azatricyclo[30.3.1.0^4,9]hexatriaconta-16,24,26,28-tetraene-2,3,10,14,20-pentone] | 1 to 10 | Yes |
| COCCOCCO[C@H]1C[C@@H]2CC[C@@H](C)[C@@](O)(O2)C(=O)C(=O)N2CCCC[C@H]2C(=O)O[C@H]([C@H](C)C[C@@H]2CC[C@@H](O)[C@H](OC)C2)CC(=O)[C@H](C)/C=C(\C)[C@@H](OC)[C@@H](OC)C(=O)[C@H](C)C[C@H](C)/C=C/C=C/C=C/1C [I-49, (23E,25E,27E,28E,34R,35S,36R,37R,39S,41S,43S,44S,45R,46R,55R)-55-hydroxy-44-[(1R)-2-[(1S,3R,4R)-4-hydroxy-3-methoxy-cyclohexyl]-1-methyl-ethyl]-45,46-dimethoxy-43-[2-(2-methoxyethoxy)ethoxy]-34,35,36,37,47,48-hexamethyl-64,65-dioxa-56-azatricyclohexatriaconta-23,25,27(47),28(48)-tetraene-49,50,51,52,53-pentone] | 1 to 10 | Yes |
| CO[C@@H]1/C(C)=C/[C@@H](C)C(=O)C[C@@H]([C@H](C)C[C@@H]2CC[C@@H](OCCCO)[C@H](OC)C2)OC(=O)[C@@H]2CCCCN2C(=O)C(=O)[C@]2(O)O[C@@H](CC[C@H]2C)C[C@H](OCCOC2COC2)/C(C)=C/C=C/C=C/[C@@H](C)C[C@@H](C)C(=O)[C@@H]1OC [I-45, (23E,25E,27E,28E,35R,36S,37R,38R,40S,42S,44S,45S,47R,48R,57R)-47,57-dihydroxy-45-[(1R)-2-[(1S,3R,4R)-4-(3-hydroxypropoxy)-3-methoxy-cyclohexyl]-1-methyl-ethyl]-48-methoxy-35,36,37,38,49,50-hexamethyl-44-[2-(oxetan-3-yloxy)ethoxy]-68,69-dioxa-58-azatricyclohexatriaconta-23,25,27(49),28(50)-tetraene-51,52,53,54,55-pentone] | < 1 | Yes |
